Assay results from patent publication US7709497B2, “Pyrazolo[3,4-b]pyridine compound, and its use as a PDE4 inhibitor” (Glaxo Group Limited, priority 2004, dated 2010).

Legend:
[1] = test system: Dinitrofluorobenzene (DNFB)-induced delayed type hypersensitivity (DTH) response in pigs; assay: Pig model of atopic dermatitis: DNFB-induced DTH response, skin topical administration; format: in vivo
Description: The pig DTH (delayed type hypersensitivity) model of contact hypersensitivity utilizes the Th2-mediated inflammatory response in pig skin to mimic the pathology of atopic dermatitis in humans. The model measures the potential anti-inflammatory effect of compounds, topically-applied to the skin, on the acute DTH (delayed type hypersensitivity) response in castrated male Yorkshire pigs.
In general in the assay, pigs (domestic Yorkshire pigs, 15-18 kg at time of sensitization, castrated males) are first sensitized by topical application of ca. 10% (w/v) dinitrofluorobenzene (DNFB) dissolved in DMSO:acetone:olive oil (ca. 1:5:3) (ca. 40 mg DNFB, 400 microlitre solution total) to the ears (outer) and groin (inner). The pigs are then challenged 12 days later with ca. 0.6% (w/v) DNFB applied to randomized sites on the shaved back of the pigs (ca. 90 micrograms/site; sites are identified and numbered by grid made with marking pen).
On the day of challenge, the treatments are performed at about 2 hours prior to and about 6 hours after challenge (for DMSO/acetone solutions/suspensions, to maximize exposure to drug), or at about 30 minutes after and about 6 hours after challenge (for topical ointments or creams, representing a more clinically relevant treatment protocol).
One day (about 24 hrs) after challenge, and optionally again at ca. 48 hrs post challenge, test sites are visually evaluated for intensity and extent of erythema by measuring the diameter of the reaction at its widest point and assigning scores of 0 to 4 for each of erythema intensity and erythema extent. Induration (a measure of swelling) is also scored 0 to 4. Scores for erythema intensity, erythema extent and induration are assigned according to the following criteria: Intensity of Erythema: 0=normal, 1=minimal, barely visible, 2=mild, 3=moderate, 4=severe. Extent of Erythema (not raised): 0=no edema, 1=macules of pin head size, 2=lentil sized macules, 3=confluent macules, 4=diffuse over entire site. Induration (palpable): 0=normal, 1=nodules of pin head size, 2=doughy lentil sized nodules, 3=confluent firm nodules, 4=diffuse hard lesion. The summed visual score at ca. 24 hours includes the individual scores for erythema intensity, erythema extent, and induration; so the maximal summed score for each site would be 12. High summed scores can generally indicate a high inflammatory response. Visual scores are subject to some inaccuracy/error.
Differences in the summed score between adjacent control (placebo) and treatment sites on the grids are calculated. This difference value is then used to determine the percent inhibition compared to the summed score for the control (placebo) sites. The more negative the difference value, the greater the calculated inhibition. Percent inhibition of (percent inhibition compared to) the mean summed score can be calculated.
About 24 hours after challenge, treatment sites can optionally also be visually evaluated for lesion area.
The anti-inflammatory effect of the compound of formula (I) (“free base” form), applied topically to the skin, on the acute DTH response in castrated male Yorkshire pigs is compared to that of another PDE4 inhibitor cipamfylline (BRL-61063) and the topical immunomodulator pimecrolimus.
In the above assay, the compound of formula (I) is topically administered: either (A) at ca. 2.5% (w/v) concentration in a solution of ca. 10% DMSO/90% acetone (ca. 50 microliters or ca. 1.5 mg/site) at about 2 hours prior to and about 6 hours after the DNFB challenge; or (B) at ca. 0.5% (w/w) concentration in an ointment containing propylene glycol (PG)*(ca. 25 mg of formulation/site) at about 30 minutes after and about 6 hours after the DNFB challenge. […]

[2] = Systemic exposure after oral administration to rat(s); format: in vivo; conditions: about 1 mg/kg oral, free base, 10% DMSO and 90% PEG200/water (70:30), preliminary tests
Description: Although the compound of formula (I) or salt thereof may be administered orally, oral administration is not presently thought to be a preferred route of administration.

[3] = Aqueous solubility preliminary screen; format: physicochemical; conditions: pH 7.4 phosphate buffered saline with about 5% DMSO, aqueous with cosolvent or surfactant or cyclodextrin, free base, pH 7.4 PBS with about 5% DMSO, about room temperature
Experimental: Aqueous solubility: A preliminary screen aims to estimate roughly the aqueous solubility of compounds by (as an approximate summary): (i) creating a ca. 10 mM solution of the compound in DMSO, (ii) diluting a portion of this DMSO solution by mixing about 19 parts by volume of pH 7.4 aqueous phosphate buffered saline (PBS) buffer with 1 part by volume of the ca. 10 mM DMSO solution, (iii) “filtering” the mixture with the aid of centrifugation, and then (iv) measuring the concentration of the dissolved compound in the “filtrate”.

- systemic exposure after oral administration [2]: low systemic exposure
- solubility kinetic [3]: ~60 µg/mL
Compound: CCn1ncc2c(NC3CCN(C(N)=O)CC3)c(C(=O)NCc3ccc(C)c(C)c3)cnc21 [compound of formula (I), 4-{[1-(aminocarbonyl)-4-piperidinyl]amino}-N-[(3,4-dimethylphenyl)methyl]-1-ethyl-1H-pyrazolo[3,4-b]pyridine-5-carboxamide]
- inhibition of mean summed score (erythema intensity, erythema extent, induration) ([1]; ca. 0.5% (w/w) in PG ointment, vs placebo PG ointment, ca. 24 h after challenge, p<0.05 by ANOVA): 13-14%
- reduction in mean summed score ([1]; ca. 2.5% (w/v) in DMSO/acetone solution, vs vehicle alone, ca. 24 h after challenge): about 21%
- lesion area ([1]; skin administration in DMSO/acetone or PG ointment, subject to some inaccuracy/error): decrease the lesion area
